Results as given in PubChem BioAssay (NCI).
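How tested: cells in 96-well plates exposed to compound for 48 hours at five concentrations. Abbreviation: GI50, concentration required for 50% inhibition of growth. Definition used: TGI = concentration required for complete inhibition of growth.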

Columns and labels:
Experiment in all cases: NCI-60 cell line screen, 48 h
DLD-1 colon = test system: DLD-1 colon
SF-268 CNS = test system: SF-268 CNS
HT29 colon = test system: HT29 colon
TK-10 renal = test system: TK-10 renal
SNB-19 CNS = test system: SNB-19 CNS
RPMI-8226 leukemia = test system: RPMI-8226 leukemia
HCT-15 colon = test system: HCT-15 colon
KM20L2 colon = test system: KM20L2 colon
MCF7 breast = test system: MCF7 breast
T-47D breast = test system: T-47D breast

Structure (SMILES) | TGI (DLD-1 colon) [µM] | TGI (SF-268 CNS) [µM] | TGI (HT29 colon) [µM] | TGI (TK-10 renal) [µM] | TGI (SNB-19 CNS) [µM] | TGI (RPMI-8226 leukemia) [µM] | TGI (HCT-15 colon) [µM] | TGI (KM20L2 colon) [µM] | GI50 (DLD-1 colon) [µM] | GI50 (SF-268 CNS) [µM] | GI50 (HT29 colon) [µM] | GI50 (SNB-19 CNS) [µM] | GI50 (RPMI-8226 leukemia) [µM] | GI50 (HCT-15 colon) [µM] | GI50 (KM20L2 colon) [µM] | GI50 (TK-10 renal) [µM] | GI50 (MCF7 breast) [µM] | TGI (MCF7 breast) [µM] | GI50 (T-47D breast) [µM] | TGI (T-47D breast) [µM]
NC(=O)NC1C(C(=O)O)N(Cc2ccccc2)C(=O)N1Cc1ccccc1 (stereo unspecified) | > 100 | > 100 | > 100 | > 100 | > 100 | > 100 | > 100 | > 100 | – | – | – | – | – | – | – | – | – | – | – | –
CC([O-])=C1C(=O)c2ccccc2C1=O.CC([O-])=C1C(=O)c2ccccc2C1=O.CC[O-].CC[O-].[Ti+4] | > 100 | > 100 | > 100 | – | > 100 | > 100 | > 100 | > 100 | > 100 | > 100 | > 100 | 44.1 | > 100 | > 100 | > 100 | – | – | – | – | –
O=C1CCCCC12CCC/C2=N\O (stereo unspecified) | > 100 | > 100 | – | > 100 | > 100 | > 100 | > 100 | > 100 | – | – | – | – | – | – | – | – | – | – | – | –
CC(=O)NC(C=O)C(O[C@H](C)C(=O)NC(C)C(=O)NC(CCC(N)=O)C(=O)OCc1ccccc1)C(O)C(O)COC(=O)CCNc1c2ccccc2nc2cccc([N+](=O)[O-])c12 (stereo partly specified) | 16.5 | 5.11 | 7.88 | 53.6 | 17.4 | 4.39 | 30 | 5.58 | – | – | – | – | – | – | – | – | – | – | – | –
COCCOCCOCCOc1cccc2c1C(=O)c1cccc(OCCOCCOCCOC)c1C2=O | > 100 | – | > 100 | > 100 | > 100 | > 100 | > 100 | > 100 | – | – | – | – | – | – | – | – | – | – | – | –
CC(=O)c1ccc(NC(=O)C(=O)C(C#N)CC(C)(C)C=O)cc1 (stereo unspecified) | – | > 100 | > 100 | > 100 | > 100 | > 100 | > 100 | > 100 | – | – | – | – | – | – | – | – | – | – | – | –
O=c1c2cc3c(cc2c2cccc4c2n1CCC4)OCO3 | > 100 | – | > 100 | > 100 | > 100 | > 100 | > 100 | > 100 | – | – | – | – | – | – | – | – | – | – | – | –
COc1cccc(SSc2cccc(OC)c2C(=O)O)c1C(=O)O | > 100 | > 100 | > 100 | > 100 | – | > 100 | > 100 | > 100 | – | – | – | – | – | – | – | – | – | – | – | –
Cc1nc2ccccc2nc1N=Nc1ccccc1 | – | > 100 | 15.1 | > 100 | > 100 | 42.8 | > 100 | – | – | 22.7 | 0.193 | 50.3 | 12.2 | 16.3 | – | 48.8 | 5.75 | > 100 | 10.1 | 67.7
CC(=O)c1ccc(NC(=O)COC(=O)c2cccc3c(=O)c4ccccc4[nH]c23)cc1 | > 100 | > 100 | > 100 | 60.6 | 68.6 | – | – | > 100 | – | – | – | – | – | – | – | – | – | – | – | –
O=C1OC(=O)C2C3C=CC(C12)C1C2C=CC2C31 (stereo unspecified) | – | > 100 | > 100 | > 100 | > 100 | – | – | > 100 | – | – | – | – | – | – | – | – | – | – | – | –
O=c1cccc(-c2cccc(=O)[nH]2)[nH]1 | > 100 | – | > 100 | > 100 | – | > 100 | > 100 | – | – | – | – | – | – | – | – | – | – | – | – | –
COCCOCCOCc1n(Cc2ccc3ccccc3n2)c2ccccc2[n+]1Cc1ccc2ccccc2n1 | – | 16.2 | 10.6 | 16.2 | 13.5 | 12.4 | 52 | – | – | 0.903 | 0.53 | 0.444 | 0.138 | 15.8 | – | 4.02 | 0.369 | 11.1 | 0.302 | 13.1
COC(=O)[C@H](Cc1cn(C)cn1)NC(=O)[C@H](C)NC(=O)Nc1cc(C(F)(F)F)cc(C(F)(F)F)c1 | – | > 10 | > 10 | > 10 | > 10 | > 10 | > 10 | – | – | > 10 | > 10 | > 10 | > 10 | > 10 | – | > 10 | > 10 | > 10 | 7.58 | > 10
CCOC(=O)Nc1cc2ccccc2c(N=Nc2ccccc2)c1O | – | > 100 | > 100 | > 100 | > 100 | > 100 | > 100 | – | – | – | – | – | – | – | – | – | – | > 100 | – | > 100
NC1(Cc2ccc(Cl)cc2)CCN(c2ncnc3[nH]ccc23)CC1 | – | 21.3 | 17.8 | 14.8 | 21.3 | 26.5 | 23.9 | – | – | 6.66 | 3.7 | 5.33 | 4.37 | 5.64 | – | 3.17 | 4.1 | 17.6 | 1.59 | 14.7
O=C1c2cccnc2C(=O)c2c1c(C(=O)OCCCN1CCCCC1)c1ccccn21 | – | 0.207 | 0.665 | 4.18 | 1.83 | – | 0.422 | – | – | < 0.01 | 0.0295 | < 0.01 | 0.0609 | 0.01 | – | 0.0272 | < 0.01 | < 0.015 | 1.1 | 21.5
COc1ccc(CCN2CCC(CN(C)Cc3cnn(-c4ccccc4)c3)CC2)cc1 | – | 34.7 | 17.3 | 32.6 | 66 | 42.1 | 18.5 | – | – | 14.2 | 4.29 | 21.2 | 13.8 | 4.49 | – | 16.3 | 13.9 | 28.2 | 10.4 | 30.7
O=C1N(Cc2ccccc2Cl)c2ccccc2C12NN=C(c1cccc(Cl)c1)S2 (stereo unspecified) | – | 3.26 | 4.3 | 3.15 | 3.32 | 6.04 | 4.19 | – | – | 1.59 | 2.02 | 1.75 | 2.36 | 1.9 | – | 1.77 | 1.75 | 3.37 | 1.62 | 3.1
Cc1ccc(C2NC(=O)c3ccccc3N2)c(C)c1 (stereo unspecified) | – | > 100 | 34.9 | > 100 | > 40.8 | 12 | > 77 | – | – | – | – | – | – | – | – | – | – | 8.34 | – | > 100
OCCN(CCO)c1cccc(N(CCO)CCO)n1 | > 100 | > 100 | – | > 100 | > 100 | > 100 | > 100 | > 100 | – | – | – | – | – | – | – | – | – | – | – | –
Cc1ccc(NC(=O)CCc2n[nH]c(=S)o2)cc1 | > 100 | > 100 | > 100 | > 100 | > 100 | – | > 100 | > 100 | – | – | – | – | – | – | – | – | – | – | – | –
CCCCCCNCc1cc(C(C)(C)C)cc(CNCCCCCC)c1O | – | 3.32 | 3.24 | 3.3 | 3.23 | 4.05 | 3.1 | – | – | 1.7 | 1.75 | 1.76 | 1.96 | 1.63 | – | 1.86 | 1.71 | 3.17 | 1.65 | 3.29
CN1CCN(c2nc(-c3csc(-c4cccs4)n3)cc3ccccc23)CC1 | – | 3.6 | 3.41 | 3.65 | 5.36 | 4.98 | 3.15 | – | – | 1.82 | 1.66 | 2.14 | 2.09 | 1.63 | – | 1.98 | 1.63 | 3.2 | 1.85 | 4.56
CC(C)(C)OC(=O)NCc1cccc(N=C=S)c1 | – | 64.9 | 54 | 70.8 | 44.7 | 56.7 | 36.5 | – | – | 21 | 23.2 | 17.6 | 17.2 | 16.6 | – | 25.8 | 16.6 | 42.4 | 16.5 | 36.6
CC1SC2(CCCCC2)N(NC(=O)c2[nH]c3ccc(Br)cc3c2-c2ccccc2)C1=O (stereo unspecified) | – | > 100 | > 100 | > 100 | > 100 | 30.2 | > 100 | – | – | 75.6 | 8.1 | 40.8 | 3.83 | > 100 | – | 26.2 | 20.5 | > 100 | 20.5 | > 100
CC1(C)O[C@@H]2C[C@H]3[C@@H]4C[C@H](F)C5=CC(=O)C=C[C@]5(C)[C@@]4(F)[C@@H](O)C[C@]3(C)[C@]2(C(=O)CO)O1 | – | > 100 | > 100 | > 100 | > 100 | > 100 | > 100 | – | – | – | – | – | – | – | – | – | – | > 100 | – | > 100
CCC(C)C(=O)OCC(=O)c1ccc(-c2ccccc2)cc1 (stereo unspecified) | – | > 100 | > 100 | > 100 | > 100 | 71.5 | 43.3 | – | – | – | – | – | – | – | – | – | – | > 100 | – | > 100
NC(=O)c1sc(-n2cnc3cc(C(F)(F)F)ccc32)cc1OCc1ccccc1Br | – | > 25 | > 25 | > 25 | > 25 | > 25 | > 25 | – | – | > 17.5 | > 19.5 | > 19.1 | > 23.6 | > 25 | – | > 25 | > 13.4 | > 25 | > 21 | > 25
C/C(=N\NC(=S)N1CCCCCC1)c1cccc2cccnc12 | – | > 100 | 19.1 | > 100 | > 44.2 | 15.3 | > 21.9 | – | – | – | – | – | – | – | – | – | – | > 100 | – | 70.9
